Measured values reported in ChEMBL document CHEMBL1201862, “PubChem BioAssay data set” (2004).
The source made the active and inactive calls.

How the values were obtained:
[1] = molecular target: Glyceraldehyde-3-phosphate dehydrogenase (Homo sapiens, UniProt P04406)
[2] = molecular target: T1, Bcl-2-related protein A1 (Mus musculus, UniProt Q07440); assay: Bfl-1 inhibitors blocking BH3 peptide binding, confirmation, biochemical, TR-FRET, mouse Bfl-1 (AID 621);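 also: TR-FRET binding of GST-Bfl-1 to FITC-labelled Bid peptide via terbium antibody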
T1 sequence (Q07440 whole entry): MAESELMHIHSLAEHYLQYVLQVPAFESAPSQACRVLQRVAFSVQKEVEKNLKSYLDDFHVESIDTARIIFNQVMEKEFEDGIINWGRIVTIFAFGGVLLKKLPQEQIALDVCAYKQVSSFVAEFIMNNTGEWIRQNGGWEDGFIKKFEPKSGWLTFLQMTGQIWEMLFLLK

[3] = molecular target: T1, Bcl-2-related protein A1; assay: Bfl-1 binding inhibitors, SAR follow-up, biochemical, fluorescence polarization (AID 1070)
[4] = molecular target: T2, NADPH oxidase 1 (Homo sapiens, UniProt Q9Y5S8); assay: Late-stage luminescence-based cell-based dose response assay to identify inhibitors of NADPH oxidase 1 (NOX1): Purchased analogs 2.; type: functional
T2 sequence (Q9Y5S8 whole entry): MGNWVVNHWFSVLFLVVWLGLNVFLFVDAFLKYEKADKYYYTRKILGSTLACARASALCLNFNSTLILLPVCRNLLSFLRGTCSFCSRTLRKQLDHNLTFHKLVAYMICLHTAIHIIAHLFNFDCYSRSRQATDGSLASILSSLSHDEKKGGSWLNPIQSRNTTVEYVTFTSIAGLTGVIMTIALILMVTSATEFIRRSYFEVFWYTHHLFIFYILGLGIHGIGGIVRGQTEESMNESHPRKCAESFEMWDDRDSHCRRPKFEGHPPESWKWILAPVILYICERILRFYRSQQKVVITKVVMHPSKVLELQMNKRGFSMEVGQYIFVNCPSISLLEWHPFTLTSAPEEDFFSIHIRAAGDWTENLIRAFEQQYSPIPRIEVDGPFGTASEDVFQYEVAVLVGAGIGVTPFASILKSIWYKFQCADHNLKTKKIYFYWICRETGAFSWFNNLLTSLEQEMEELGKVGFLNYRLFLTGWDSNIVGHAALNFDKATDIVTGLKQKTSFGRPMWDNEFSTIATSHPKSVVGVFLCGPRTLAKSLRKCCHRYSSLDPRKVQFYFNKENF

[5] = molecular target: 5-hydroxytryptamine receptor 1E (Homo sapiens, UniProt P28566); assay: Counterscreen assay for S1P3 antagonists: Dose response cell-based high throughput screening assay to identify antagonists of the 5-Hydroxytryptamine Receptor Subtype 1E (5HT1E). [Related pubchem assays: 1429, 485 ]; type: functional
Sequence of 5-hydroxytryptamine receptor 1E (P28566 whole entry): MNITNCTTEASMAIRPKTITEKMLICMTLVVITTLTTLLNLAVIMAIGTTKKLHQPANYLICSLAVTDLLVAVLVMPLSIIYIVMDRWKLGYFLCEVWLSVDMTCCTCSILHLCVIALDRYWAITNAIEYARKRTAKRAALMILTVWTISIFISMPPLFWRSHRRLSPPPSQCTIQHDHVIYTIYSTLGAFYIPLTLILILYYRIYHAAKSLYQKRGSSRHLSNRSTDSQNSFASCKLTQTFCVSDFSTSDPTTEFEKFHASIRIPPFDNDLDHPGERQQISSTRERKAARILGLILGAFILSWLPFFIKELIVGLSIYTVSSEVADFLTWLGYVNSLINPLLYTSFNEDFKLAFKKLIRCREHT

[6] = molecular target: Sphingosine 1-phosphate receptor 3 (Homo sapiens, UniProt Q99500); assay: Dose response cell-based high throughput screening assay for antagonists of the Sphingosine 1-Phosphate Receptor 3 (S1P3). [Related pubchem assays: 1429, 485 ]; type: functional
Sequence of Sphingosine 1-phosphate receptor 3 (Q99500 whole entry): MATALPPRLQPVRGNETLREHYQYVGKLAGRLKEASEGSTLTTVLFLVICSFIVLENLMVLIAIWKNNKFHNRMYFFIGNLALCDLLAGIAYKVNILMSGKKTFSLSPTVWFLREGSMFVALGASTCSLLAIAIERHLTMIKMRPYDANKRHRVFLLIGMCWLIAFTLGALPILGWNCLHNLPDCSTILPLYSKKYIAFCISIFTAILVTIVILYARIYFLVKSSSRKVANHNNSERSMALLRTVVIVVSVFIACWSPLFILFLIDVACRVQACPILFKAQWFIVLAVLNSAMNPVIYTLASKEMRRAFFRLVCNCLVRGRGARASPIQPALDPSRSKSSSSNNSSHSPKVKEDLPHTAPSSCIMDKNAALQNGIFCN

[7] = molecular target: Estrogen receptor (Homo sapiens, UniProt P03372);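 also: potency for inhibiting coactivator peptide recruitment to the receptor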
Sequence of Estrogen receptor (P03372 whole entry): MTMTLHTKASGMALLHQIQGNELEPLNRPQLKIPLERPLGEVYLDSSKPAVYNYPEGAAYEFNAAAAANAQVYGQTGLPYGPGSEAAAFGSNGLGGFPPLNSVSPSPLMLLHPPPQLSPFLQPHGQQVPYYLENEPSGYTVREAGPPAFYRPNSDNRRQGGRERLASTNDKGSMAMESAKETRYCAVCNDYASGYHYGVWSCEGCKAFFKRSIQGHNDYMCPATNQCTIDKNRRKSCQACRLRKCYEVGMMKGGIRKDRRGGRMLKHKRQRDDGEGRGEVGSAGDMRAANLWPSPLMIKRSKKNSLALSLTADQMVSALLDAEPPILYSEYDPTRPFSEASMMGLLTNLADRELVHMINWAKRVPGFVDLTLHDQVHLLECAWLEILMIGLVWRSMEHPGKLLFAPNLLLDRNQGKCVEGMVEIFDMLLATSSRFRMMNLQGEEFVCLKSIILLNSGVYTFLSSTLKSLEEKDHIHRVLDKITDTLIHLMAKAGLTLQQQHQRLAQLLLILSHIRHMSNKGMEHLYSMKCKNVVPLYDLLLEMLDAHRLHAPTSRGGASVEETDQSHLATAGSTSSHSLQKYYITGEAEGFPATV

[8] = molecular target: Estrogen receptor beta (Homo sapiens, UniProt Q92731);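 also: recombinant ER-beta bound to coactivator SRC1 peptide in presence of estradiol agonist; inhibitors block coactivator peptide binding and lower the FRET signal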
Sequence of Estrogen receptor beta (Q92731 whole entry): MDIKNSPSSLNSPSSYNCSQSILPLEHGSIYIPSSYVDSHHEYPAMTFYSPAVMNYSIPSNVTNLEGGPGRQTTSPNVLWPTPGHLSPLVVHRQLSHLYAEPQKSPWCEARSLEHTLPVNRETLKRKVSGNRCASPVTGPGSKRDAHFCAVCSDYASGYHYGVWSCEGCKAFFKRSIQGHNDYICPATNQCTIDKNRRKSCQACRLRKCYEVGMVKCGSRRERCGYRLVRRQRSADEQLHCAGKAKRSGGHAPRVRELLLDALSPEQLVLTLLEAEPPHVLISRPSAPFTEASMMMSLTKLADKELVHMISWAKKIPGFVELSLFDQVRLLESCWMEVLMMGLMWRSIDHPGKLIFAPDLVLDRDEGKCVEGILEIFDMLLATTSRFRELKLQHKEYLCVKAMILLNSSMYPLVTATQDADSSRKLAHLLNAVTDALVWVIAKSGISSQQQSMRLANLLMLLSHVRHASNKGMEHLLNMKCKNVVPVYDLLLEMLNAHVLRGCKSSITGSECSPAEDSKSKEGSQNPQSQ

[9] = inhibitors of Bluetongue virus cytopathic effect, confirmation, arbovirus, BSR cells (AID 1250); type: functional;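 also: protection from viral cytopathic effect measured as cell viability by ATP luminescence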
[10] = molecular target: Induced myeloid leukemia cell differentiation protein Mcl-1 (Homo sapiens, UniProt Q07820); type: functional
Sequence of Induced myeloid leukemia cell differentiation protein Mcl-1 (Q07820 whole entry): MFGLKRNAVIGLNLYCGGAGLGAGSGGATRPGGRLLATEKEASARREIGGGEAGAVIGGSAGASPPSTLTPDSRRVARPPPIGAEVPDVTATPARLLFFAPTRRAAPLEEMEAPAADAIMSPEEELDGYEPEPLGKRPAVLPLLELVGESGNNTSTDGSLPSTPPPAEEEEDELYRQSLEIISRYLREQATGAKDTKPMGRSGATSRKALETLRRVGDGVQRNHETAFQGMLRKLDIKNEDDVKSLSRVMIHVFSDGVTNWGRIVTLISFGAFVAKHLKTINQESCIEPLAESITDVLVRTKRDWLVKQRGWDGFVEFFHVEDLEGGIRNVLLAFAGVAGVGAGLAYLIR

[11] = molecular target: T3, Neuropeptide Y receptor type 2 (Homo sapiens, UniProt P49146); assay: NPY-Y2 antagonist potency, selectivity check, dose response, counter-screen for NPY-Y1 antagonist project, cell-based (AID 1278); type: functional
T3 sequence (P49146 whole entry): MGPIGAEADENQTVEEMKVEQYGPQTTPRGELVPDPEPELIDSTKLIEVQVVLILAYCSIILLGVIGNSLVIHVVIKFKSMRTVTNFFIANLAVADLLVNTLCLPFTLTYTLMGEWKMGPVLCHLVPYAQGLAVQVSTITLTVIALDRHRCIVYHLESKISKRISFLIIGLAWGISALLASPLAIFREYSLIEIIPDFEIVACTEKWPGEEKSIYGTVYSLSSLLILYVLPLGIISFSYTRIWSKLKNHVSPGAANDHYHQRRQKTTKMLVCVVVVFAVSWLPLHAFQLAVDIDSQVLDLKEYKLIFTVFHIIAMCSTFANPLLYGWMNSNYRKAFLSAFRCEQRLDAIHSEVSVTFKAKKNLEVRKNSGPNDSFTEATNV

[12] = molecular target: T4, Neuropeptide Y receptor type 1 (Homo sapiens, UniProt P25929); assay: NPY-Y1 receptor antagonist potency, dose response, cell-based (AID 1277); type: functional
T4 sequence (P25929 whole entry): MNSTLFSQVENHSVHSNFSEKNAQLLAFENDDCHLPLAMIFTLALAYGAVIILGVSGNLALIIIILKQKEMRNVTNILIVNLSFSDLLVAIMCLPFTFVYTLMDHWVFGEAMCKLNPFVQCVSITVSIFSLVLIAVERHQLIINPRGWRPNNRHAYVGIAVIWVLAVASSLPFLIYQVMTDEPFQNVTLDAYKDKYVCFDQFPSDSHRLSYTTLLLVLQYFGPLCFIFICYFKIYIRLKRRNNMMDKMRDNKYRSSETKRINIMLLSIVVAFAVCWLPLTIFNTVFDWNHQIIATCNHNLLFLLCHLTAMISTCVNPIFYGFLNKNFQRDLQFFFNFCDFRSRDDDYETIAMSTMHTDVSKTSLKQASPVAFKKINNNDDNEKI

[13] = molecular target: Voltage-gated inwardly rectifying potassium channel KCNH2 (Homo sapiens, UniProt Q12809); assay: hERG protection from proarrhythmic block, potency, dose response, cell-based, thallium flux (AID 2121); type: ADME
Sequence of Voltage-gated inwardly rectifying potassium channel KCNH2 (Q12809 whole entry): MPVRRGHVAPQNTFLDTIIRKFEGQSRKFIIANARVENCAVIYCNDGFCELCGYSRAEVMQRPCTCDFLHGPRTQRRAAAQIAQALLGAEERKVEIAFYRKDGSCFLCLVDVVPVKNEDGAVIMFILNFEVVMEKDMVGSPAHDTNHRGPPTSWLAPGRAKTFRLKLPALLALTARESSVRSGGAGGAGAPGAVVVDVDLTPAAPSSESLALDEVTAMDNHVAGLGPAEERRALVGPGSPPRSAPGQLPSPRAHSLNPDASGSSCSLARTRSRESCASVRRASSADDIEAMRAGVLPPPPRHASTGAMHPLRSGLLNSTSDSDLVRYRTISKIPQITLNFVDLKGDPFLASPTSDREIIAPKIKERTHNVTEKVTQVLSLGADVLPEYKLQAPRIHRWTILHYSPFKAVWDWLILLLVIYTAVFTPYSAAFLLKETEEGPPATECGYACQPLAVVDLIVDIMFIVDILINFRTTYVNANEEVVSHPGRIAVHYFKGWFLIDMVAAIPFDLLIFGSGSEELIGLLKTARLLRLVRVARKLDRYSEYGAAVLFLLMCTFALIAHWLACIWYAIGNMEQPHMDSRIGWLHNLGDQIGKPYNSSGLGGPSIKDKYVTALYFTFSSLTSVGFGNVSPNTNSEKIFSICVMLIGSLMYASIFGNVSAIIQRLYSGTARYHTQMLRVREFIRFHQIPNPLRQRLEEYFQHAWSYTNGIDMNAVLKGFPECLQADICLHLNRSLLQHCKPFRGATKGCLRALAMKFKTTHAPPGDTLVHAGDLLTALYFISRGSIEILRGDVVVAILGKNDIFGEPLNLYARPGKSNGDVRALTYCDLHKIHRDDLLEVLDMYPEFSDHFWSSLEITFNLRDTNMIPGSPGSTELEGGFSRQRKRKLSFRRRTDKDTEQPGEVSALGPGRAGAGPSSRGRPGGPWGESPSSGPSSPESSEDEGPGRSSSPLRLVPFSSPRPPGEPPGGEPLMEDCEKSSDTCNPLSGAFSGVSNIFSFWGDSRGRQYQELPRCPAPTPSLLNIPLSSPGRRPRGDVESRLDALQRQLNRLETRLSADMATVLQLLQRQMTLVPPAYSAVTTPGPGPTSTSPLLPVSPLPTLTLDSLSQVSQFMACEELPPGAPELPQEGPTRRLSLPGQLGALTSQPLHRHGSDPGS

[14] = molecular target: Peroxisome proliferator-activated receptor gamma/Nuclear receptor coactivator 1 (Homo sapiens, UniProt P37231); assay: (§1) TR-FRET dose response biochemical High Throughput Screening assay for agonists of the steroid receptor coactivator 1 (SRC-1) recruitment by the peroxisome proliferator-activated receptor gamma (PPAR gamma): non-selective agonists. [Related pubchem assays (depositor defined):AID1300, AID1808, AID504735, AID631]; type: protein assay
[15] = molecular target: Peroxisome proliferator-activated receptor gamma/Nuclear receptor coactivator 3 (Homo sapiens, UniProt P37231); assay: as §1, with “3 (SRC-3)” for “1 (SRC-1)”, “assays: 1301 (Confirmation screen.), 1048 (Primary screen.)]” for “assays (depositor defined):AID1300, AID1808, AID504735, AID631]”; type: functional
[16] = molecular target: Peroxisome proliferator-activated receptor gamma/Nuclear receptor corepressor 2 (Homo sapiens, UniProt P37231+Q9Y618); assay: Counterscreen for NR2E3 inverse agonists: TR-FRET-based biochemical high throughput dose response assay to identify inverse agonists of the interaction between peroxisome proliferator-activated receptor gamma (PPARg) and nuclear receptor co-repressor 2 (NCOR2).; type: functional
[17] = molecular target: Photoreceptor-specific nuclear receptor (Homo sapiens, UniProt Q9Y5X4); assay: NR2E3 inverse agonists, dose response, biochemical, TR-FRET (AID 463256); type: functional
Sequence of Photoreceptor-specific nuclear receptor (Q9Y5X4 whole entry): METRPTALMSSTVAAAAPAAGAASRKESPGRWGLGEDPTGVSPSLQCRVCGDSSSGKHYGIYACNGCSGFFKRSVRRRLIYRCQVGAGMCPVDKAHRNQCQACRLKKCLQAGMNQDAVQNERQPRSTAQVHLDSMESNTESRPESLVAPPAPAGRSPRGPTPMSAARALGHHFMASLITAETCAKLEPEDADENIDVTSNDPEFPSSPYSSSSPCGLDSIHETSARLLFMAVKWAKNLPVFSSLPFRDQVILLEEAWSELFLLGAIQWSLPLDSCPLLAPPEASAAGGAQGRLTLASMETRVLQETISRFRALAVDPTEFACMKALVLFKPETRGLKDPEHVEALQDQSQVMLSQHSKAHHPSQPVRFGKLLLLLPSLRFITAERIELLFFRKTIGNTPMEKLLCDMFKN

[18] = molecular target: Peroxisome proliferator-activated receptor gamma/Nuclear receptor coactivator 2 (Homo sapiens, UniProt P37231); assay: TR-FRET dose response biochemical High Throughput Screening assay for agonists of the steroid receptor coactivator 2 (SRC-2) recruitment by the peroxisome proliferator-activated receptor gamma (PPAR gamma): non-selective agonists. [Related pubchem assays: 1297, 1032 ]; type: functional
[19] = A High Throughput Confirmatory Assay used to Identify Novel Compounds that Inhibit Mycobacterium Tuberculosis in the absence of Glycerol.; type: functional
[20] = inhibitors of intracellular T. cruzi replication, confirmation, NIH3T3 host cells, beta-gal luminescence (AID 2044); type: functional, cell-based;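 also: intracellular parasites grown in NIH/3T3 mouse fibroblasts as host cells; luminescent beta-galactosidase reporter signal from transgenic T. cruzi replicating inside host cells; inhibitors lower the luminescence signal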
[21] = cytotoxicity toward NIH3T3 fibroblasts, dose response, counter-screen, cell-based, ATP luminescence, mouse fibroblasts (AID 2010); type: functional;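 also: cells exposed to compound for about 90 hours before reading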

Sequence of Glyceraldehyde-3-phosphate dehydrogenase (P04406 whole entry): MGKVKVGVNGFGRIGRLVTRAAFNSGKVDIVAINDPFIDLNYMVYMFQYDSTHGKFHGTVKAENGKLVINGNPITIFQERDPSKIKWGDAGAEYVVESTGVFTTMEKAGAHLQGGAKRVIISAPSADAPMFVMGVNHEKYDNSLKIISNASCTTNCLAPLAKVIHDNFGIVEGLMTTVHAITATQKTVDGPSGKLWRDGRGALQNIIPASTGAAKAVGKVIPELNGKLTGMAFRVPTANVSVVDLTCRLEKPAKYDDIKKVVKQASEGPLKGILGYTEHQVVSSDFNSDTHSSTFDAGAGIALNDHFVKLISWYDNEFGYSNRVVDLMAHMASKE

For `O=C1C(Cl)=C(N2CCOCC2)C(=O)N1c1c(Cl)cccc1Cl`, the IC50 [1] was > 10 µM (inconclusive), the IC50 [2] was > 100 µM (not active) and the IC50 [3] was > 100 µM (not active).

With `C=C(NNc1c(F)c(F)nc(F)c1F)c1ccc(OC)cc1` the IC50 [4] was > 17 µM (not active).

For `Cc1ccc(NC(=O)C(OC(=O)c2ccccc2Cl)c2ccccc2)cc1Cl` (stereo unspecified), the IC50 [5] was 5.28 µM (active) and the IC50 [6] was 9.24 µM (active).

In the case of `CCOC(=O)C1=C(O)/C(=C\c2ccc(CNC(=O)C(=O)Nc3ccc(C)c(C)c3)o2)N=C1C`, the IC50 [7] is reported as 40.5 µM (not active) and the IC50 [8] is reported as > 50 µM (not active).

With `CN1CCN(S(=O)(=O)c2ccc(NC(=S)NC(=O)c3ccc(Cl)cc3)cc2)CC1` the IC50 [9] was > 100 µM (active) and the IC50 [10] was 4.19 µM (active).

In the case of `CC1=CC(C)(C)N(C(=O)CNC2CCCCC2)c2cc(C)ccc21`, the IC50 [11] is reported as 12.3 µM (not active) and the IC50 [12] is reported as 6.84 µM (active).

For `CCOc1ccccc1NC(=O)C(=O)CC(=O)c1ccc(OC)cc1`, the EC50 [13] was 3.01 µM (active).

With `O=C(COc1ccc2ccccc2c1)NCCNC(=O)COc1ccc2ccccc2c1` the EC50 [14] was 8.38 µM (active), the EC50 [15] was 47.8 µM (not active) and the IC50 [16] was 5.82 µM (active). For the same molecule, the IC50 [17] was 4.75 µM (active) and the EC50 [18] was 8.67 µM (active).

In the case of `CCCCNc1nc(N(C)c2ccccc2)nc(-n2ccnc2)n1`, the IC50 [19] is reported as > 100 µM (active), the EC50 [20] is reported as 0.55 µM (active) and the EC50 [21] is reported as > 30 µM (not active).
